Key:
in vitro = conditions: human, uninfected MT-4 cells, CC50 (nM), same protocol as Test A, CellTiter-Glo
Outline: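 Cytoprotection read-out: CellTiter-Glo chemiluminescence after 5 days at 37 °C of HIV-IIIb-infected MT-4 cells (m.o.i. 0.003) with compound in 10-point 3-fold dilutions, quadruplicate, 10% FBS. Cytotoxicity (CC50) measured identically without virus.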

HIV-IIIb = test: Test A: Antiviral assay in MT4 cells; assay type: cell-based, HIV-1; conditions: Human immunodeficiency virus 1, IIIB, MT4, 120 h, read-out: % inhibition at 2 μM, percent inhibition of virus-induced cell killing, from dose response curve at 2 uM drug; MT-4 cells infected with HIV-IIIb, 5 days, CellTiter-Glo

Structure (SMILES)	CC50 at 5 days (in vitro) [nM]	inhibition at 2 µM (HIV-IIIb) [%]
NC(=O)c1cc(-c2cccnc2[C@H](Cc2cc(F)cc(F)c2)NC(=O)Cn2nc(C(F)(F)OCc3ccccn3)c3c2CCCC3)ccc1F [Example 135, (S)-5-(2-(1-(2-(3-(difluoro(pyridin-2-ylmethoxy)methyl)-4,5,6,7-tetrahydro-1H-indazol-1-yl)acetamido)-2-(3,5-difluorophenyl)ethyl)pyridin-3-yl)-2-fluorobenzamide]	21100	53
Cc1ccccc1-c1ccnc(C(Cc2ccccc2)NC(=O)Cn2nc(C(F)(F)F)c3c2CCCC3)n1 (stereo not drawn) [Example 10, N-(2-phenyl-1-(4-o-tolylpyrimidin-2-yl)ethyl)-2-(3-(trifluoromethyl)-4,5,6,7-tetrahydro-1H-indazol-1-yl)acetamide]	13000	0
CC1CCCc2c(C(F)(F)F)nn(CC(=O)N[C@@H](Cc3cc(F)cc(F)c3)c3ncccc3-c3cccc(C(N)=O)c3)c21 (stereo partly drawn) [Example 52, 3-(2-((1S)-2-(3,5-difluorophenyl)-1-(2-(7-methyl-3-(trifluoromethyl)-4,5,6,7-tetrahydro-1H-indazol-1-yl)acetamido)ethyl)pyridin-3-yl)benzamide]	13300	92
NC(=O)c1cccc(-c2cccnc2[C@H](Cc2cc(F)cc(F)c2)NC(=O)Cc2c[nH]c3ccc(N)cc23)c1 [Example 560, (S)-3-(2-(1-(2-(5-amino-1H-indol-3-yl)acetamido)-2-(3,5-difluorophenyl)ethyl)pyridin-3-yl)benzamide]	> 53000	112
NC(=O)c1cccc(-c2cccnc2[C@H](Cc2cc(F)cc(F)c2)NC(=O)Cc2c[nH]c3cc(C4CC4)c(=O)[nH]c23)c1 [Example 338C, (S)-3-(2-(1-(2-(6-cyclopropyl-5-oxo-4,5-dihydro-1H-pyrrolo[3,2-b]pyridin-3-yl)acetamido)-2-(3,5-difluorophenyl)ethyl)pyridin-3-yl)benzamide]	> 53000	35
NC(=O)c1cc(-c2ccc[n+]([O-])c2[C@H](Cc2cc(F)cc(F)c2)NC(=O)Cn2nc(C(F)(F)F)c3c2CS(=O)(=O)C3)ccc1F [Example 218, (S)-3-(3-carbamoyl-4-fluorophenyl)-2-(2-(3,5-difluorophenyl)-1-(2-(5,5-dioxido-3-(trifluoromethyl)-4,6-dihydro-1H-thieno[3,4-c]pyrazol-1-yl)acetamido)ethyl)pyridine 1-oxide]	> 53200	0
NC(=O)c1cc(-c2cccnc2[C@H](Cc2cc(F)cc(F)c2)NC(=O)Cn2nc3c(c2C(F)(F)F)CSC3)ccc1F [Example 261, (S)-5-(2-(2-(3,5-difluorophenyl)-1-(2-(3-(trifluoromethyl)-4,6-dihydro-2H-thieno[3,4-c]pyrazol-2-yl)acetamido)ethyl)pyridin-3-yl)-2-fluorobenzamide]	21200	6
NC(=O)c1cc(-c2cccnc2[C@H](Cc2cc(F)cc(F)c2)NC(=O)Cn2nc(C(F)(F)F)c3c2CCC2(C3)OCCO2)ccc1F [Example 468D, (S)-5-(2-(2-(3,5-difluorophenyl)-1-(2-(3′-(trifluoromethyl)-6′,7′-dihydrospiro[[1,3]dioxolane-2,5′-indazole]-1′(4′H)-yl)acetamido)ethyl)pyridin-3-yl)-2-fluorobenzamide]	> 53000	14
CN(C)C(=O)c1ccc(-c2cccnc2[C@H](Cc2cc(F)cc(F)c2)NC(=O)Cc2c[nH]c3ccc(O)cc23)cc1 [Example 47, (S)-4-(2-(2-(3,5-difluorophenyl)-1-(2-(5-hydroxy-1H-indol-3-yl)acetamido)ethyl)pyridin-3-yl)-N,N-dimethylbenzamide]	> 53000	59
NC(=O)c1cc(-c2cccnc2[C@H](Cc2cc(F)cc(F)c2)NC(=O)Cn2cc(C3=CCCCC3)c(C(F)(F)F)n2)ccc1F [Example 460, (S)-5-(2-(1-(2-(4-cyclohexenyl-3-(trifluoromethyl)-1H-pyrazol-1-yl)acetamido)-2-(3,5-difluorophenyl)ethyl)pyridin-3-yl)-2-fluorobenzamide]	8970	0
NC(=O)c1cc(-c2cccnc2[C@H](Cc2cc(F)cc(F)c2)NC(=O)Cn2nc(C(F)(F)F)c3c2C(O)CC3)ccc1F (stereo partly drawn) [Example 391, 5-(2-((1S)-2-(3,5-difluorophenyl)-1-(2-(6-hydroxy-3-(trifluoromethyl)-5,6-dihydrocyclopenta[c]pyrazol-1(4H)-yl)acetamido)ethyl)pyridin-3-yl)-2-fluorobenzamide]	44800	60
NC(=O)c1cc(-c2cccnc2[C@H](Cc2cc(F)cc(F)c2)NC(=O)Cn2cc(C(F)(F)F)cn2)ccc1F [Example 570, (S)-5-(2-(2-(3,5-difluorophenyl)-1-(2-(4-(trifluoromethyl)-1H-pyrazol-1-yl)acetamido)ethyl)pyridin-3-yl)-2-fluorobenzamide]	> 53200	5
O=C(Cn1nc(C(F)F)c2c1C(F)(F)C1CC21)N[C@@H](Cc1cc(F)cc(F)c1)c1ncccc1-c1cnc2c(c1)CCCN2 (stereo partly drawn) [Example 442, (S)—N-(1-(3-(5,6,7,8-tetrahydro-1,8-naphthyridin-3-yl)-pyridin-2-yl)-2-(3,5-difluorophenyl)ethyl)-2-(3-(difluoromethyl)-5,6-dihydro-4,5-(methano)-6,6-difluoro-cyclopenta[c]pyrazol-1(4H)-yl)acetamide]	8880	79
O=C(Cc1c[nH]c2ccc(F)cc12)N[C@@H](Cc1cc(F)cc(F)c1)c1ncccc1-c1ccccc1-c1ccccc1 [Example 398, (S)—N-(1-(3-(biphenyl-2-yl)pyridin-2-yl)-2-(3,5-difluorophenyl)ethyl)-2-(5-fluoro-1H-indol-3-yl)acetamide]	9830	2
CC(C)Oc1ccc(-c2cccnc2[C@H](Cc2cc(F)cc(F)c2)NC(=O)Cn2nc(C(F)(F)F)c3c2CCCC3)cc1 [Example 100, (S)—N-(2-(3,5-difluorophenyl)-1-(3-(4-isopropoxyphenyl)pyridin-2-yl)ethyl)-2-(3-(trifluoromethyl)-4,5,6,7-tetrahydro-1H-indazol-1-yl)acetamide]	7830	56
NCc1ccc2c(CC(=O)N[C@@H](Cc3cc(F)cc(F)c3)c3ncccc3-c3cccc(C(N)=O)c3)c[nH]c2c1 [Example 584, (S)-3-(2-(1-(2-(6-(aminomethyl)-1H-indol-3-yl)acetamido)-2-(3,5-difluorophenyl)ethyl)pyridin-3-yl)benzamide]	7250	93
Cc1ccccc1-c1cccnc1[C@H](Cc1cc(F)cc(F)c1)NC(=O)Cc1c[nH]c2ccc(O)cc12 [Example 26, (S)—N-(2-(3,5-difluorophenyl)-1-(3-o-tolylpyridin-2-yl)ethyl)-2-(5-hydroxy-1H-indol-3-yl)acetamide]	24500	70
NC(=O)c1cc(-c2cccnc2[C@H](Cc2cc(F)cc(F)c2)NC(=O)Cn2nc(C(F)F)c3c2C(O)CCC3)ccc1F (stereo partly drawn) [Example 384, 5-(2-((1S)-1-(2-(3-(difluoromethyl)-7-hydroxy-4,5,6,7-tetrahydro-1H-indazol-1-yl)acetamido)-2-(3,5-difluorophenyl)ethyl)pyridin-3-yl)-2-fluorobenzamide]	> 53200	97
Cc1cc(F)ccc1-c1cccnc1[C@H](Cc1cc(F)cc(F)c1)NC(=O)Cc1c[nH]c2ccc(F)cc12 [Example 404, (S)—N-(2-(3,5-difluorophenyl)-1-(3-(4-fluoro-2-methylphenyl)pyridin-2-yl)ethyl)-2-(5-fluoro-1H-indol-3-yl)acetamide]	44600	0
CCOC(=O)c1nn(CC(=O)N[C@@H](Cc2cc(F)cc(F)c2)c2ncccc2-c2ccc(F)c(C(N)=O)c2)c2c1CC1CC2C1 [Example 81D, (S)-5-(2-(2-(3,5-difluorophenyl)-1-(2-(4,5,6,7-tetrahydro-3-carboethoxy-5,7-(methano)indazol-1-yl)acetamido)ethyl)pyridin-3-yl)-2-fluorobenzamide]	16700	75
NC(=O)c1cc(-c2cccnc2[C@H](Cc2cc(F)cc(F)c2)NC(=O)COc2ccccc2)ccc1F [Example 164, (S)-5-(2-(2-(3,5-difluorophenyl)-1-(2-phenoxyacetamido)ethyl)pyridin-3-yl)-2-fluorobenzamide]	29900	2
Cc1cc2cnn(CC(=O)N[C@@H](Cc3cc(F)cc(F)c3)c3ncccc3-c3ccc(F)c(C(N)=O)c3)c2cc1C [Example 485, (S)-5-(2-(2-(3,5-difluorophenyl)-1-(2-(5,6-dimethyl-1H-indazol-1-yl)acetamido)ethyl)pyridin-3-yl)-2-fluorobenzamide]	22200	43
NC(=O)c1cc(-c2cccnc2[C@H](Cc2cc(F)cc(F)c2)NC(=O)Cn2c(CN3CCOCC3)nc3ccccc32)ccc1F [Example 577, (S)-5-(2-(2-(3,5-difluorophenyl)-1-(2-(2-(morpholinomethyl)-1H-benzo[d]imidazol-1-yl)acetamido)ethyl)pyridin-3-yl)-2-fluorobenzamide]	> 53200	20
Cc1cc(=O)n(CC(=O)N[C@@H](Cc2cc(F)cc(F)c2)c2ncccc2-c2cccc(C(N)=O)c2)c2ccccc12 [Example 321, (S)-3-(2-(2-(3,5-difluorophenyl)-1-(2-(4-methyl-2-oxoquinolin-1(2H)-yl)acetamido)ethyl)pyridin-3-yl)benzamide]	29700	30
